From patent publication EP0824862A1, “Dihaloformaldoxime carbamates as antimicrobial agents” (ROHM AND HAAS COMPANY, priority 1996, dated 1998) come the findings set out here.

Type in all cases: cell-based
One test has as its system Aspergillus niger. The experiment in a line: Minimum Inhibitory Concentration (MIC) test, two fold serial dilutions. To be noted: Trypticase Soy Broth (TSB); unit assumed. As for the experimental part: (§1) The spectrum of antimicrobial activity and the effect of anionic surfactant on the antimicrobial activity of the antimicrobial agents useful in the present invention were determined in Minimum Inhibitory Concentration (MIC) tests. MICs were determined by two fold serial dilutions of a compound in Minimal Salts Media (M9G), Trypticase Soy Broth (TSB) or Tryticase Soy Broth and anionic surfactant (TSBA). The compounds were tested against Aspergillus niger, Rhodotorula rubra, Escherichia coli and Pseudomonas aeruginosa. Results of the MIC tests are shown below.

In another test the test system is Escherichia coli. The description is as above. As to conditions: unit assumed; for MIC E.Coli M9G: Minimal Salts Media (M9G); for MIC E. Coli TSB: Trypticase Soy Broth (TSB); for MIC E. coli TSBA: Trypticase Soy Broth and anionic surfactant (TSBA). Here is the method: as §1
The next test concerns Pseudomonas aeruginosa. The test is described as above. To be noted: Trypticase Soy Broth (TSB); unit assumed. Here is the method:
as §1

The next test has as its system Rhodotorula rubra. The description is as above. As to conditions: Trypticase Soy Broth (TSB); unit assumed. As for the experimental part: as §1
Test [1] relates to Pseudomonas aeruginosa, Klebsiella pneumonia, Enterobacter aerogenes. Kind of test: Speed of kill test in synthetic cooling water. To be noted: mixed culture 1:1:1, 10^6 cells per mL, concentration giving at least a two log reduction.

Values after ≈ are worked out from the molar mass of the structure shown.

Take `CCCCCCCCNC(=O)ON=C(Br)Br` [Compound 7, N-(n-octyl)-dibromoformaldoxime carbamate]: the MIC A. niger TSB against Aspergillus niger stood at 50 µg/mL (≈ 140 µM). For the same compound, in the test on Escherichia coli, the MIC E.Coli M9G was less than 4 µg/mL, the MIC E. Coli TSB was determined as 63 µg/mL (≈ 176 µM) and the MIC E. coli TSBA came to 125 µg/mL (≈ 349 µM). The MIC P. aeruginosa TSB in the test with Pseudomonas aeruginosa is greater than 500 µg/mL. This compound showed an MIC R. Rubra TSB against Rhodotorula rubra of 12.5 µg/mL (≈ 34.9 µM).

Take `CCCCCCNC(=O)ON=C(Br)Br` [Compound 8, N-(n-hexyl)-dibromoformaldoxime carbamate]: in the test with Aspergillus niger, the MIC A. niger TSB was greater than 50 µg/mL. In addition, in the test on Escherichia coli, the MIC E.Coli M9G is less than 4 µg/mL, the MIC E. Coli TSB worked out at 63 µg/mL (≈ 191 µM) and the MIC E. coli TSBA is 32 µg/mL (≈ 97 µM). Further, in the test with Pseudomonas aeruginosa, the MIC P. aeruginosa TSB was 125 µg/mL (≈ 379 µM). This compound also came in with an MIC R. Rubra TSB in the test on Rhodotorula rubra of 25 µg/mL (≈ 75.8 µM). In test [1], the “Effective Concentration 4 Hours” value is on record as less than 4 ppm and the “Effective Concentration 24 Hours” value is on record as less than 4 ppm.

In turn, `Cc1ccc(NC(=O)ON=C(Br)Br)cc1` [Compound 9, N-(4-methylphenyl)-dibromoformaldoxime carbamate] gave an MIC A. niger TSB in the test with Aspergillus niger of less than 0.8 µg/mL. Further, in the test on Escherichia coli, the MIC E.Coli M9G was less than 4 µg/mL, the MIC E. Coli TSB was 32 µg/mL (≈ 95.2 µM) and the MIC E. coli TSBA is 32 µg/mL (≈ 95.2 µM). In the test on Pseudomonas aeruginosa, this compound gave an MIC P. aeruginosa TSB of 16 µg/mL (≈ 47.6 µM). Also, the MIC R. Rubra TSB in the test on Rhodotorula rubra came out at 3.2 µg/mL (≈ 9.52 µM). For the same compound, in test [1], the “Effective Concentration 4 Hours” value came to 125 ppm and the “Effective Concentration 24 Hours” value stood at 8 ppm.

Consider `O=C(Nc1ccc(Cl)cc1)ON=C(Br)Br` [Compound 3, N-(4-chlorophenyl)-dibromoformaldoxime carbamate], for which the MIC A. niger TSB in the test with Aspergillus niger was greater than 50 µg/mL. For the same compound, in the test on Escherichia coli, the MIC E.Coli M9G was less than 4 µg/mL, the MIC E. Coli TSB was 63 µg/mL (≈ 177 µM) and the MIC E. coli TSBA stood at 63 µg/mL (≈ 177 µM). This compound yielded an MIC P. aeruginosa TSB in the test with Pseudomonas aeruginosa of 63 µg/mL (≈ 177 µM). The compound also showed an MIC R. Rubra TSB in the test with Rhodotorula rubra greater than 50 µg/mL. Besides, in test [1], the “Effective Concentration 4 Hours” value was 8 ppm and the “Effective Concentration 24 Hours” value was less than 4 ppm.

Compound `CCCCNC(=O)ON=C(Br)Br` [Compound 6, N-(n-butyl)-dibromoformaldoxime carbamate] came in with an MIC A. niger TSB with Aspergillus niger greater than 50 µg/mL. Also, in the test with Escherichia coli, the MIC E.Coli M9G was less than 4 µg/mL, the MIC E. Coli TSB was determined as 250 µg/mL (≈ 828 µM) and the MIC E. coli TSBA was determined as 63 µg/mL (≈ 209 µM). This compound returned an MIC P. aeruginosa TSB against Pseudomonas aeruginosa of 63 µg/mL (≈ 209 µM). Also, in the test with Rhodotorula rubra, the MIC R. Rubra TSB was greater than 50 µg/mL. In test [1], the “Effective Concentration 4 Hours” value is 16 ppm and the “Effective Concentration 24 Hours” value was determined as 16 ppm.
